Experimental data: patent publication US8865894B2, “Oxazolidin-2-one compounds and uses thereof” (Novartis AG, priority 2012, dated 2014)

Key:
Assay type in all cases: cell-based
mTOR = target: T1, mTOR (Mus musculus, UniProt Q9JLN9); assay: Cellular assay mTOR (phospho-T389 S6K1 SureFire in TSC1-/- MEF cells); conditions: TSC1-/- MEF cells; read-out: mTOR S6K(T389)_TSC1ko/ IC50
T1 construct: endogenous in cells; host or cells: TSC1-/- MEF (mouse embryo fibroblasts)
Excerpt: A cell based assay (384-well format) was developed for determination of compound effects on cellular mTOR kinase activity in MEF (mouse embryo fibroblasts) cells derived from mice lacking TSC1 (Tuberosclerosis Complex1) a potent suppressor of mTOR kinase activity. Due to lack of TSC1 the mTOR kinase is constitutively activated resulting in permanent phosphorylation of Thr 389 of S6 kinase 1 (S6K1) which is one of the downstream targets of mTOR.
Using a SureFire Kit that enables to determine the phosphorylation of Thr389 on the S6K1 an assay was developed, validated and implemented in the Alpha-Screen format that allows the quantitative determination of phospho-T389 of S6K1 in cell lysates. […] These were in agreement with those values obtained with the biochemical mTOR ATP-binding assay enabling a quantitative comparison of potency of mTOR inhibitors.
TSC1−/− MEFs cells (Kwiatkowski, D. J., Zhang, H., Bandura, J. L., Heiberger, K. M., Glogauer, M., el-Hashemite, N., and Onda, H. (2002) Hum. Mol. Genet. 11, 525-534) were cultured in DMEM high glucose medium supplemented with 10% FBS (Invitrogen), 2 mM Glutamine and 1% (w/v) Penicillin/Streptomycin at 37° C., 5% CO2.
The SureFire kit for determination of P70S6kinase phosphorylation was purchased from Perkin Elmer (p70S6K p-T389, #TGR70S50K) and the assay was performed according to the instructions of the supplier and according to the generic method for SureFire assays. Shortly, 5 μL cell lysate per well were transferred to 384-well white proxy-plates (for luminescent readout) and mixed with […] and […] (final volume: 12 μL). After 3 h incubation in the dark at RT luminescence was read with the Envision Reader (Perkin Elmer). Untreated cells were used as control (high control) and cells treated with 3 μM BEZ235 were used as low control. The assay window between the signals obtained for the high and the low controls were defined as 100% and compound effects were expressed as percent inhibition. IC50 values were calculated from the dose response curves by graphical extrapolation.

[1] = target: T2, human PI3Kdelta p110 catalytic subunit (Rat-1 pBABEpuro Myr-HA-hp110 delta) (Homo sapiens, UniProt O00329); assay: Cellular assay PI3Kdelta (p-Akt(S473) SureFire, Rat-1_PI3Kdelta cells); conditions: 1 h compound treatment, read-out: Rat1-PI3Kd/ IC50
T2 construct: Myr (myristoylation signal) (N); HA (N); expressed in transfected cells; host or cells: Rat-1
Excerpt: (§1) AlphaScreen (Amplified Luminescent Proximity Homogeneous Assay, ALPHA, Perkin Elmer) is a non-radioactive bead-based proximity assay technology to study biomolecular interactions in a homogenous microtiter plate format. The brand name SureFire denotes AlphaScreen assays that are adapted to quantify the phosphorylation of endogenous cellular proteins in cell lysates, by using matched antibody pairs, which consist of an anti-phospho-kinase and an anti-kinase antibody. The assay allows characterization of kinase signaling in cells as well as measurement of kinase inhibitor effects. The AlphaScreen technology provides several advantages over standard assay techniques such as ELISA, as it avoids time-consuming washing procedures and reduces plate handling. Furthermore, it is miniaturizable at least to a 384-well format and provides sensitivity down to the femtomolar range, dependent on the affinity of the antibodies included in the individual AlphaScreen SureFire assay kit. High sensitivity is reached by an intrinsic amplification mechanism, which involves production of singlet oxygen molecules. SureFire assay kits are commercially available for specific targets and include pairs of validated antibodies (PerkinElmer). This report describes common procedures applied for AlphaScreen SureFire assays and respective semi-automated steps for routine kinase inhibitor profiling in cell-based assays.
(§2) The Rat-1 cell lines stably overexpressing activated PI3K class I isoforms Rat-1 pBABEpuro Myr-HA-hp110 delta (Rat-1_PI3Kdelta) and Rat-1 pBABEpuro Myr-HA-hp110alpha (Rat-1_PI3Kalpha) and Rat-1 pBABEpuro Myr-HA-hp110 beta (Rat-1_PI3beta) were prepared as described (Maira S M, Stauffer F, Brueggen J, Furet P, Schnell C, Fritsch C, Brachmann S, Chène P, de Pover A, Schoemaker K, Fabbro D, Gabriel D, Simonen M, Murphy L, Finan P, Sellers W, García-Echeverría C (2008), Mol Cancer Ther. 7:1851-63 and Maira S M, Pecchi S, Brueggen J, Huh K, Schnell C, Fritsch C, Nagel T, Wiesmann M, Brachmann S, Dorsch M, Chène P, Schoemaker K, De Pover A, Menezes D, Fabbro D, Sellers W, García-Echeverría C, Voliva C F (2011), Mol. Cancer Ther., accepted). All cell lines were cultivated in complete growth medium (DMEM high glucose, 10% (v/v) fetal bovine serum, 1% (v/v) MEM NEAA, 10 mM HEPES, 2 mM L-glutamine, puromycin (10 μg/mL for Rat-1_PI3Kdelta and Rat-1_PI3Kalpha, 4 ug/mL for Rat-1_PI3beta), 1% (v/v) Pen/Strep) to 90% confluency at 37° C./5% CO2/90% humidity in a humidified CO2 incubator and were split twice a week.
(§3) The following materials were used for p-AKT(S473) detection in Rat-1 cell lysates: Dulbecco's modified Eagle's medium (DMEM) high glucose (Gibco Invitrogen, Basel, Switzerland, Cat. No. 41965), Heat Inactivated Fetal Bovine Serum, Qualified (HI FBS; Gibco Invitrogen, Basel, Switzerland, Lot. No. 16140), MEM non essential amino acids (NEAA; Gibco Invitrogen, Basel, Switzerland, Cat. No. 11140), HEPES (Gibco Invitrogen, Basel, Switzerland, Cat. No. 15630), Penicillin/Streptomycin (Pen/Strep, 100×; Gibco Invitrogen, Basel, Switzerland, Cat. No. 15140-122), L-Glutamine (Gibco Invitrogen, Basel, Switzerland, Cat. No. 25030), Puromycin (Sigma Aldrich, Buchs, Switzerland, Cat. No. P9620), DMSO (MERCK, Dietikon, Switzerland, Cat. No. 8.02912.2500), H2O, MilliQ-H2O unless otherwise stated (MILLIPORE QGARDOOR1, Millipore, Zug, Switzerland), Bovine serum albumine (BSA; Sigma Aldrich, Buchs, Switzerland Cat. No. A8412), SureFire p-Akt 1/2 (Ser473) Assay Kit (PerkinElmer, Schwerzenbach, Switzerland, Cat. No. TGRAS50K).
(§4) The p-Akt(S473) SureFire assay measures the phosphorylation of endogenous cellular Akt 1/2 at Ser473 in cell lysates. Using Rat-1 cells stably expressing myr-HA-tagged versions of the human PI3Kdelta, PI3Kalpha, or PI3Kbeta p110 catalytic subunit isoforms, the assay was developed as a two-plate protocol in a 384-well format.

[2] = target: T3, human PI3Kalpha p110 catalytic subunit (Rat-1 pBABEpuro Myr-HA-hp110alpha) (Homo sapiens, UniProt P42336); assay: Cellular assay PI3Kalpha (p-Akt(S473) SureFire, Rat-1_PI3Kalpha cells); conditions: 1 h compound treatment, read-out: Rat1-PI3Ka/ IC50
T3 construct: Myr (myristoylation signal) (N); HA (N); expressed in transfected cells; host or cells: Rat-1
Excerpt: as §1, §2, §3, §4

[3] = target: T4, human PI3Kbeta p110 catalytic subunit (Rat-1 pBABEpuro Myr-HA-hp110 beta) (Homo sapiens, UniProt P42338); assay: Cellular assay PI3Kbeta (p-Akt(S473) SureFire, Rat-1_PI3beta cells); conditions: p-Akt(S473), 1 h compound treatment; read-out: Rat1-PI3Kb/ IC50
T4 construct: Myr (myristoylation signal) (N); HA (N); expressed in transfected cells; host or cells: Rat-1
Excerpt: as §1, §2, §3, §4

A2058 cells = assay: Cell cycle G2/M arrest Cytospin assay to detect tubulin binding (off-target); design: key: 0=no condensed DNA observed (indicating no off target activity); 1=(indicating weak off target activity); 2=(indicating medium off target activity); 3=large amount of condensed DNA observed (indicating strong off-target activity); conditions: 5 μM test item, 24 hours
Description: The off-target effect (evidence of tubulin binding) was measured as follows.
Cell cycle G2/M arrest Cytospin assay to detect tubulin binding (off-target) binding activities of MAPP derivatives: 5×10^5 cells A2058 cells were plated in 6-well cluster, with 2 mL of DMEM (high Glucose containing 1% sodium pyruvate, 1% glutamin and 10% FCS). 18 hours later, the test items were added at a concentration of 5 μM (spiking 1 μL of a 10 mM solution of the test item). 24 hours later, the cells were trypsinized and transferred into a 15 mL conical tube. Cells are then pelleted by centrifugation, and resuspended with PBS/0 (containing 10% FCS). Cells are counted with a CASY counter, and each samples equilibrated to 1×10^6 cells/mL. […] The staining was visually assessed for the presence of condensed DNA and given a score where 0=no condensed DNA observed (indicating no off target activity), 1=(indicating weak off target activity), 2=(indicating medium off target activity), 3=large amount of condensed DNA observed (indicating strong off-target activity).

T2 sequence (O00329 whole entry): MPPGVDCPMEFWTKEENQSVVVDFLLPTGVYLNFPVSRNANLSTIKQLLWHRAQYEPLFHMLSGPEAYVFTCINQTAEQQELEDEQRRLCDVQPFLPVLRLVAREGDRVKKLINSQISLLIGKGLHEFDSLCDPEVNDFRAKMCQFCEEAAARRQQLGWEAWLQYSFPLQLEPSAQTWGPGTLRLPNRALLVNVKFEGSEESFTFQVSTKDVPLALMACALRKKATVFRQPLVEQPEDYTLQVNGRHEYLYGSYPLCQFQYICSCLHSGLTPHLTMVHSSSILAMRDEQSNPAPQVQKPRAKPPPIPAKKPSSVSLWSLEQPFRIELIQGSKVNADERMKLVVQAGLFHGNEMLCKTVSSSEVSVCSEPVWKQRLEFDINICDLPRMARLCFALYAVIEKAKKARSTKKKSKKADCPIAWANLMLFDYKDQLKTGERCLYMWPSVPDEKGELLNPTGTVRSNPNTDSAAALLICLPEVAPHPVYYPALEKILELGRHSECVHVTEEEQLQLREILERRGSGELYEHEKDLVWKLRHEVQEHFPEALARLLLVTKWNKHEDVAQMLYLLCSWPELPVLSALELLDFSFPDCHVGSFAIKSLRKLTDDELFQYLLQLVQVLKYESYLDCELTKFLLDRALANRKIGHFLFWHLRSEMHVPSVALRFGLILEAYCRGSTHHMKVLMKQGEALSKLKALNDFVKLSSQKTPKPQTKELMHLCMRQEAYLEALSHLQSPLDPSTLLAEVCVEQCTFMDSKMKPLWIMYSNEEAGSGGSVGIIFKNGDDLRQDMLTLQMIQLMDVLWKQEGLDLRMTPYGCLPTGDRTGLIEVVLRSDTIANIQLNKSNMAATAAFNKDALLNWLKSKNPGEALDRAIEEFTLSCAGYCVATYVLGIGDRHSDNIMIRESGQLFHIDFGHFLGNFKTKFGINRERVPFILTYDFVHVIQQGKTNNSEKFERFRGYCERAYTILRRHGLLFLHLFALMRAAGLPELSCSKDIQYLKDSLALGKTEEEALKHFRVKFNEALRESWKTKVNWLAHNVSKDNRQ
T2 sequence (Q63787 whole entry partner): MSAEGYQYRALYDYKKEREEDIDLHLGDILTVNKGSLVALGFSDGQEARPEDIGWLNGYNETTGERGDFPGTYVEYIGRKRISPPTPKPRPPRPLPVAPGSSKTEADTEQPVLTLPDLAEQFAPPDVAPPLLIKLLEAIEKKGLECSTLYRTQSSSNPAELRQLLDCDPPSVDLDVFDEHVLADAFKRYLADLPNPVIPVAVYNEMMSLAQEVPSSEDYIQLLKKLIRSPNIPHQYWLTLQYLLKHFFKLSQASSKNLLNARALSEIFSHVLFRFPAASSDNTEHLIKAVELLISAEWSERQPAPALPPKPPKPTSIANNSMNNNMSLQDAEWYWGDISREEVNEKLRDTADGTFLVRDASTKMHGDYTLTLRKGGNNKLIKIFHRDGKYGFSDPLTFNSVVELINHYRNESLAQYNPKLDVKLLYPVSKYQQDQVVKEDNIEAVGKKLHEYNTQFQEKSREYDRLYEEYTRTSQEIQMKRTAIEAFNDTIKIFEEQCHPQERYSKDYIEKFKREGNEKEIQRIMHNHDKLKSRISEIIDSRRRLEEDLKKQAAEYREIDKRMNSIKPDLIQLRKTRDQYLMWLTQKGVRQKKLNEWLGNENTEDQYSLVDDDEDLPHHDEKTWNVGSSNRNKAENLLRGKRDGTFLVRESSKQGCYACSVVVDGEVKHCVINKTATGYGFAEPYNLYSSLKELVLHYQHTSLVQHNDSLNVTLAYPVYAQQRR
T4 sequence (P42338 whole entry): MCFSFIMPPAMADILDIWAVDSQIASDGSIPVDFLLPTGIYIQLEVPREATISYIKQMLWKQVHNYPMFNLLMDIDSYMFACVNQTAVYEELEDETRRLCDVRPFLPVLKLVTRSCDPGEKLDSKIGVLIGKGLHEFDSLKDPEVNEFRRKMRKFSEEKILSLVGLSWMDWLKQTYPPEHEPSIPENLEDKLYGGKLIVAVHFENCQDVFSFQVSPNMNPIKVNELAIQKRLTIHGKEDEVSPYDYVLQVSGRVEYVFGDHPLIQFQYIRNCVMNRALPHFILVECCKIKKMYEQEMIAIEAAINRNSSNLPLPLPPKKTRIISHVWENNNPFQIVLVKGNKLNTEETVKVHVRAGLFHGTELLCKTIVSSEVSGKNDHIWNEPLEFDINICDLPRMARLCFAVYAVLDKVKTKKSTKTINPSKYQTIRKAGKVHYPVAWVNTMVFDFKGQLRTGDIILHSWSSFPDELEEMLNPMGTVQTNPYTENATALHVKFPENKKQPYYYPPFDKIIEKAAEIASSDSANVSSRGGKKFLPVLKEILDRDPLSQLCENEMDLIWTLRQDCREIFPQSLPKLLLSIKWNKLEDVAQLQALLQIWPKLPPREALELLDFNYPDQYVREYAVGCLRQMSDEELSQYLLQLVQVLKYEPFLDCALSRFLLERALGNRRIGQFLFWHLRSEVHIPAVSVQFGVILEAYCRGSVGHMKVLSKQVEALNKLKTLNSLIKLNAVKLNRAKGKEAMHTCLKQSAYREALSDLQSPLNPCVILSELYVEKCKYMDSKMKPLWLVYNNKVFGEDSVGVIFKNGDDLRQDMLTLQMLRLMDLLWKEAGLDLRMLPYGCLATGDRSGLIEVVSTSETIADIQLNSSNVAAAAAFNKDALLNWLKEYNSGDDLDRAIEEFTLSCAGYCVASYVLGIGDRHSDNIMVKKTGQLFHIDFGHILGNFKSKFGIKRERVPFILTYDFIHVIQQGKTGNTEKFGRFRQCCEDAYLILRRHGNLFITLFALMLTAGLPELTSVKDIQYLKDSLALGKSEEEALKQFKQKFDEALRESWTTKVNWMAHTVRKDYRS
T4 sequence (Q63787 whole entry partner): as the sequence (Q63787 whole entry partner) above
T3 sequence (P42336 whole entry): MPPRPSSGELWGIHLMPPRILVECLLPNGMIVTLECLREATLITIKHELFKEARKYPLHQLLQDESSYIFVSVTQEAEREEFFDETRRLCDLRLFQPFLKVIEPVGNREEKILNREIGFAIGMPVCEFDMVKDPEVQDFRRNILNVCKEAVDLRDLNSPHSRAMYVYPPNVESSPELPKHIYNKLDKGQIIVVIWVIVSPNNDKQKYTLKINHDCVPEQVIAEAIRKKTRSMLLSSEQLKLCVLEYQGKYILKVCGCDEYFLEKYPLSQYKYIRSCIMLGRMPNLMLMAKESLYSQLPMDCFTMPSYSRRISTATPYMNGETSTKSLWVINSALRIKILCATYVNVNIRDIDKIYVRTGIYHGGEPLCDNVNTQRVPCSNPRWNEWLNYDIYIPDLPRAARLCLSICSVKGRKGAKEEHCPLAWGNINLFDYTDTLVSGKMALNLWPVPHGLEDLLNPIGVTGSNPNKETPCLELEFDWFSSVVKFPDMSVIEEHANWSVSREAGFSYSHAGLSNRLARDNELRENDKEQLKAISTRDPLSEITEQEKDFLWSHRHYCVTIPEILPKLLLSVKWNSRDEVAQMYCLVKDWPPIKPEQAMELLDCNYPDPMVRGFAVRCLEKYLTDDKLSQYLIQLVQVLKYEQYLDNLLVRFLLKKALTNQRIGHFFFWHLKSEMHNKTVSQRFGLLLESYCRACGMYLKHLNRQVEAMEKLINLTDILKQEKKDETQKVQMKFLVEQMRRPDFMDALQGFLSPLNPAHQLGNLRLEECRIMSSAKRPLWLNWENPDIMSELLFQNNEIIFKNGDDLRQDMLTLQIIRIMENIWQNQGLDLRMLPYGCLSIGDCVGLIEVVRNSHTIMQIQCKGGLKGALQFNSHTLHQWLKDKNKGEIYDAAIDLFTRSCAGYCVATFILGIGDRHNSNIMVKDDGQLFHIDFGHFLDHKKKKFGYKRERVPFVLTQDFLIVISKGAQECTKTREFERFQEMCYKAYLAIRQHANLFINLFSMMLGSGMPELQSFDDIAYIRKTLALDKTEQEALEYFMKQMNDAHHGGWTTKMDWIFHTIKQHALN
T3 sequence (Q63787 whole entry partner): as the sequence (Q63787 whole entry partner) above

IC50 (mTOR) | IC50 [1] | IC50 [2] | IC50 [3] | Score (condensed DNA, G2/M arrest; off-target tubulin binding) (A2058 cells) | SMILES
1570 nM | 59 nM | 176 nM | 93 nM | 0 | CC1(CO)COC(=O)N1c1cc(-c2cnc(N)nc2C(F)(F)F)nc(N2CCOCC2)n1 (single isomer, unassigned) [Example 3A, 3-(2′-amino-2-morpholino-4′-(trifluoromethyl)-4,5′-bipyrimidin-6-yl)-4-(hydroxymethyl)-4-methyloxazolidin-2-one]
1110 nM | 172 nM | 215 nM | 331 nM | 0 | CC1(CO)COC(=O)N1c1cc(-c2cnc(N)nc2C(F)(F)F)nc(N2CCOCC2)n1 (single isomer, unassigned) [Example 3B, 3-(2′-amino-2-morpholino-4′-(trifluoromethyl)-4,5′-bipyrimidin-6-yl)-4-(hydroxymethyl)-4-methyloxazolidin-2-one]
1230 nM | 70 nM | 120 nM | 132 nM |  | Nc1ncc(-c2cc(N3C(=O)OC[C@@H]3CO)nc(N3CCOCC3)n2)c(C(F)(F)F)n1 [Example 7, (S)-3-(2′-Amino-2-morpholin-4-yl-4′-trifluoromethyl-[4,5′]bipyrimidinyl-6-yl)-4-hydroxymethyl-oxazolidin-2-one]
602 nM |  |  |  | 3 | Nc1cc(C(F)(F)F)c(-c2cc(N3CCOCC3)nc(N3CCOCC3)n2)cn1 [WO2007/084786 Example 10, reference compound]
